Like-named read-outs stand apart in the source and are kept apart here.

For five compounds, IC50 results are on record in patent US12258327B2, “5-membered heteroaryl-containing aminopyridine compounds as EGFR inhibitors” (YUHAN CORPORATION, priority 2021, dated 2025).

In one experiment the target is EGFR del19/T790M/C797S (Homo sapiens, UniProt P00533, C797S/DEL746-750/T790M). The experiment can be described thus: Biochemical EGFR kinase assay (Lance Ultra TR-FRET), triple mutant del19/T790M/C797S. The method, boiled down: (§1)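 Step 1: compound in kinase buffer, 0.003–10 μM. Step 2: kinase reaction 1 h at room temperature. Step 4: TR-FRET read at 615/665 nm; IC50 calculated.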
(TR-FRET usually uses a lanthanide donor and a delayed reading to cut background.)

The next experiment addresses EGFR L858R/T790M/C797S (Homo sapiens, UniProt P00533, C797S/L858R/T790M). The experiment in a line: Biochemical EGFR kinase assay (Lance Ultra TR-FRET), triple mutant L858R/T790M/C797S. The essentials: as §1
In the next experiment the target is EGFR del19/C797S (Homo sapiens, UniProt P00533, C797S/DEL746-750). The experiment in a line: Biochemical EGFR kinase assay (Lance Ultra TR-FRET), double mutant del19/C797S. The essentials:
as §1

The target of a further experiment is EGFR L858R/C797S (Homo sapiens, UniProt P00533, C797S/L858R). The experiment in a line: Biochemical EGFR kinase assay (Lance Ultra TR-FRET), double mutant L858R/C797S. The essentials:
as §1

The target in the next experiment is EGFR wildtype (WT) (Homo sapiens, UniProt P00533). The experiment in a line: Biochemical EGFR kinase assay (Lance Ultra TR-FRET), wildtype. The method, boiled down: as §1
EGFR wildtype (WT), sequence (P00533 25-1210): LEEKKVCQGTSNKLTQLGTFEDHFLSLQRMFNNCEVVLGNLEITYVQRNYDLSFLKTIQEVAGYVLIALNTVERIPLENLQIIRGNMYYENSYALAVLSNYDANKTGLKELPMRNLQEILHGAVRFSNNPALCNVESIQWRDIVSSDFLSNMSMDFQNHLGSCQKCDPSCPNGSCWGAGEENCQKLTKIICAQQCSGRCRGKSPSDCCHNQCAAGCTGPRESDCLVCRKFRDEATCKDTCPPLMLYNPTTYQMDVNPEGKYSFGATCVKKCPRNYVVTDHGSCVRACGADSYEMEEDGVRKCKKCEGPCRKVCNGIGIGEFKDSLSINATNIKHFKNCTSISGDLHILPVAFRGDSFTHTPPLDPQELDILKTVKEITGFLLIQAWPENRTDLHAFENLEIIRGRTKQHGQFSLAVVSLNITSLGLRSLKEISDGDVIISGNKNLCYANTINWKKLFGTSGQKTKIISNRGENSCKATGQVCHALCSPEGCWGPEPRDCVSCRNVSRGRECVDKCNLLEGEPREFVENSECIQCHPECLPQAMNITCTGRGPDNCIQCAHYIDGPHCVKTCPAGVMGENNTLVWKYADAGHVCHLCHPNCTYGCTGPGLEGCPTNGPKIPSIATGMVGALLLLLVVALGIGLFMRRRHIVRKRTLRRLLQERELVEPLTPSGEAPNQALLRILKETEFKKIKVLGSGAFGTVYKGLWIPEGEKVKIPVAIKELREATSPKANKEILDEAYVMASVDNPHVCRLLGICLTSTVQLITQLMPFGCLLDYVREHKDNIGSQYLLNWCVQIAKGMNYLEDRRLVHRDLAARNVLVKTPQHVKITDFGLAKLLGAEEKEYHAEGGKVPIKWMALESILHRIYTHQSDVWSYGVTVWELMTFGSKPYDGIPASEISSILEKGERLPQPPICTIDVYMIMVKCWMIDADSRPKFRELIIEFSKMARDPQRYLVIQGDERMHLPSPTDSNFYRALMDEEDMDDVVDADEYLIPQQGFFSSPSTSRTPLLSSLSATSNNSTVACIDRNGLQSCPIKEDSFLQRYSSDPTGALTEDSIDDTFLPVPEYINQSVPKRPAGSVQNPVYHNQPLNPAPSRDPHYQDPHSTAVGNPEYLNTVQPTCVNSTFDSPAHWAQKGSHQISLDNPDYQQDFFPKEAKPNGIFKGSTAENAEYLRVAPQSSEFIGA
Where [1] appears, read: Km ATP, read-out: IC50 del19/T790M/C797S, Km ATP.
Where [2] appears, read: Km ATP, read-out: IC50 L858R/T790M/C797S, Km ATP.
The mark [3] stands for this setting: Km ATP, read-out: IC50 del19/C797S, Km ATP.
The mark [4] stands for this setting: Km ATP, read-out: IC50 L858R/C797S, Km ATP.
Where [5] appears, read: Km ATP, read-out: IC50 WT, Km ATP.
[6] abbreviates: IC50 del19/T790M/C797S (nM) 100 μM ATP, 100 μM ATP.
[7] abbreviates: Km ATP, read-out: IC50 del19/T790M/C797S (nM) Km ATP.
Where [8] appears, read: IC50 L858R/T790M/C797S (nM) 100 μM ATP, 100 μM ATP.
Where [9] appears, read: Km ATP, read-out: IC50 L858R/T790M/C797S (nM) Km ATP.
Where [10] appears, read: IC50 del19/C797S (nM) 100 μM ATP, 100 μM ATP.
Setting [11] is: Km ATP, read-out: IC50 del19/C797S (nM) Km ATP.
Setting [12] is: IC50 L858R/C797S (nM) 100 μM ATP, 100 μM ATP.
[13] abbreviates: Km ATP, read-out: IC50 L858R/C797S (nM) Km ATP.
Where [14] appears, read: IC50 WT (nM) 100 μM ATP, 100 μM ATP.
The mark [15] stands for this setting: Km ATP, read-out: IC50 WT (nM) Km ATP.

EGFR L858R/T790M/C797S, sequence (P00533 25-1210 T790M/C797S/L858R): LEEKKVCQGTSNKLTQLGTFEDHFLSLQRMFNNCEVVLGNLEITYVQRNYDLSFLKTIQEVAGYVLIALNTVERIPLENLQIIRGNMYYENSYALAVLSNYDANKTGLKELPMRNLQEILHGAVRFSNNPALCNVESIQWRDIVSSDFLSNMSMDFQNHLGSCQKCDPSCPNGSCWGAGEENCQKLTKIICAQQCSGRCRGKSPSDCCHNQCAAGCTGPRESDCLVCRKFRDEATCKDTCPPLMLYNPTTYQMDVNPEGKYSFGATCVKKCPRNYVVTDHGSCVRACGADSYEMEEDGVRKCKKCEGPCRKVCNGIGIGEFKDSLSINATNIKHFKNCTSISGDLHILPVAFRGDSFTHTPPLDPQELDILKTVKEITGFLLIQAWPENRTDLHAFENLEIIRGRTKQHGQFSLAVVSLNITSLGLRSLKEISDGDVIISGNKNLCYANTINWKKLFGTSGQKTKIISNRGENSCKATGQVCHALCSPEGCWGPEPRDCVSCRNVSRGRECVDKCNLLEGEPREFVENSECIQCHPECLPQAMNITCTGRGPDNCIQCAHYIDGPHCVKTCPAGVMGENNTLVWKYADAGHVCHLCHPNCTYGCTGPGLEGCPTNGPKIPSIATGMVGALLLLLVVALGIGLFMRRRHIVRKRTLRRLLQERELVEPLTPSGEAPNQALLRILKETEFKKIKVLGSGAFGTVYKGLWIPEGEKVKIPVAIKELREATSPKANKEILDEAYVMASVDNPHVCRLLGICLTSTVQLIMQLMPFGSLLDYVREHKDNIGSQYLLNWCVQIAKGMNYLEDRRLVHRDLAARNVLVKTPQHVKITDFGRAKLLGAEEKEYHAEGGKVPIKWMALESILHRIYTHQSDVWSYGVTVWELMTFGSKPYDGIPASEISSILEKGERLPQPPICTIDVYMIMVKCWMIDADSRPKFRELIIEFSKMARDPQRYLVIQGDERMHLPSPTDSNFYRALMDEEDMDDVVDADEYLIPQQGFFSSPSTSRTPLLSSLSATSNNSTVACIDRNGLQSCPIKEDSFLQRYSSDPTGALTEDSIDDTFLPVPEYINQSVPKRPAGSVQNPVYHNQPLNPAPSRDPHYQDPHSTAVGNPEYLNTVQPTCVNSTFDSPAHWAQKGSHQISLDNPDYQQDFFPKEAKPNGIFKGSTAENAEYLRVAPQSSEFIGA
EGFR del19/C797S, sequence (P00533 with tags, fused parts or gaps DEL746-750/C797S): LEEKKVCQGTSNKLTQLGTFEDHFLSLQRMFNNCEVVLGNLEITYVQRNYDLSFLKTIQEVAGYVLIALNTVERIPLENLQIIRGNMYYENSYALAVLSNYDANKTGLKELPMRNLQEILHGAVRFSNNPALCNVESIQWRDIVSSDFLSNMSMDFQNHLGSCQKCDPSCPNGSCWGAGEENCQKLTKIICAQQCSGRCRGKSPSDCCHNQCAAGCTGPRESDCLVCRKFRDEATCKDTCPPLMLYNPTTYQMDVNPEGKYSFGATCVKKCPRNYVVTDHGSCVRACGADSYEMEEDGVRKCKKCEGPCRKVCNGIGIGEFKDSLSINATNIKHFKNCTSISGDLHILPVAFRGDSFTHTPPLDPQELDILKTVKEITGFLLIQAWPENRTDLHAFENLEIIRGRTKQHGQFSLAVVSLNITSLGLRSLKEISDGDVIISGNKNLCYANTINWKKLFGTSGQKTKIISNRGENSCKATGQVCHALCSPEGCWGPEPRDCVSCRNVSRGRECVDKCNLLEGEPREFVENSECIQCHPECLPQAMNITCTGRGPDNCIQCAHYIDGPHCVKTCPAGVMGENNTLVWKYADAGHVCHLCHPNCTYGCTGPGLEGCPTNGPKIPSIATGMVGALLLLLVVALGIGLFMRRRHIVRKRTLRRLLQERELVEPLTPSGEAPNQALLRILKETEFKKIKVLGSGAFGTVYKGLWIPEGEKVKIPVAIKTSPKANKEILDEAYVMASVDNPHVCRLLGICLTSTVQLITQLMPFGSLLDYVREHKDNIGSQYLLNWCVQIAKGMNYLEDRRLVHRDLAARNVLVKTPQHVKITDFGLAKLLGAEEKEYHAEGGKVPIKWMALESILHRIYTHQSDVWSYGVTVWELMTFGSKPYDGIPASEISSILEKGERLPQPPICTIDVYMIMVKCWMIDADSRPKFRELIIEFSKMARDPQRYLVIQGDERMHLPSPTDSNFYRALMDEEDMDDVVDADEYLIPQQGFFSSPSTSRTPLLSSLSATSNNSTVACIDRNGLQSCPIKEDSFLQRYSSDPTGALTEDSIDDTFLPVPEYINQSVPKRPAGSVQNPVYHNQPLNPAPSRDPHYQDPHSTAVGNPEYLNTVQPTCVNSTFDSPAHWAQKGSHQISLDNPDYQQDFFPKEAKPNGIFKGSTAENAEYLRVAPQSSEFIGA
EGFR L858R/C797S, sequence (P00533 25-1210 C797S/L858R): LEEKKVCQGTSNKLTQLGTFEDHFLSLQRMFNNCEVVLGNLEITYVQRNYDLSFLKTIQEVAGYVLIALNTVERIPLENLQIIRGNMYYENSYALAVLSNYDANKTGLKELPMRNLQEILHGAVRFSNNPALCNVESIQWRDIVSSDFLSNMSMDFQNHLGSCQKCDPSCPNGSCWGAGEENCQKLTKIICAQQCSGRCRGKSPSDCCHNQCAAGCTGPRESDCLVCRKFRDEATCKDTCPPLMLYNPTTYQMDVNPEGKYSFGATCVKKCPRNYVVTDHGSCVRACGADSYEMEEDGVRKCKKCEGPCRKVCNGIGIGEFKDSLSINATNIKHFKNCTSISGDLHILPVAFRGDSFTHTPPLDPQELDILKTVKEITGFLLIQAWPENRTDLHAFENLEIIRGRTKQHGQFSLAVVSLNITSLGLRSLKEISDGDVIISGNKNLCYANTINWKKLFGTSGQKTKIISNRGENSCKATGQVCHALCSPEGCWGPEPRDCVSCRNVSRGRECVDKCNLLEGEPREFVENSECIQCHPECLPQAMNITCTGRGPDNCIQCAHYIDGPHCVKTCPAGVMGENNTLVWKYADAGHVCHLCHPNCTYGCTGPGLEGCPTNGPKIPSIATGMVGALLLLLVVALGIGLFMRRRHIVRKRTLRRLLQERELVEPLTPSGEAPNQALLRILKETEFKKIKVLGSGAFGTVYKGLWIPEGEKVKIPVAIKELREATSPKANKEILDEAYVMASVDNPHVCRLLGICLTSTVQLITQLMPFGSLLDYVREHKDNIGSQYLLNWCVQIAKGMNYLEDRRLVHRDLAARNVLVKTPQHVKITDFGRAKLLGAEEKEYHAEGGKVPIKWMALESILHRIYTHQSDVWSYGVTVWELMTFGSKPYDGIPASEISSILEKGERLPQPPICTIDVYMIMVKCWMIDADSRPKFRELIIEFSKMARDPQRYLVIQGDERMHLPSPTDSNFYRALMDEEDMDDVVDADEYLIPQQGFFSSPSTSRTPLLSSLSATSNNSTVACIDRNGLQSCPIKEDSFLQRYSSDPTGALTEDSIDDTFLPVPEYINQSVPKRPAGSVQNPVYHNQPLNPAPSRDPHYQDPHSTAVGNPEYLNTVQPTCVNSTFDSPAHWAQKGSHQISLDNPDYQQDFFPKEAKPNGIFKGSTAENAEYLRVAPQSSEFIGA

For `C[C@]1(CO)C[C@@H](Nc2cc(Nc3ccnc(-c4cnn(S(=O)(=O)C5CC5)c4)n3)ncc2-c2ccn(C(F)F)n2)C1` [Example 378, ((1s,3s)-3-((2-((2-(1-(Cyclopropylsulfonyl)-1H-pyrazol-4-yl)pyrimidin-4-yl)amino)-5-(1-(difluoromethyl)-1H-pyrazol-3-yl)pyridin-4-yl)amino)-1-methylcyclobutyl)methanol], the IC50 on EGFR del19/T790M/C797S (IC50 del19/T790M/C797S, 100 μM ATP) was found to be 1.7 nM; on EGFR del19/T790M/C797S (setting [1]) it was 1.2 nM; against EGFR L858R/T790M/C797S (IC50 L858R/T790M/C797S, 100 μM ATP), 3.1 nM; at EGFR L858R/T790M/C797S (setting [2]), 0.3 nM; against EGFR del19/C797S (IC50 del19/C797S, 100 μM ATP), 23.9 nM; on EGFR del19/C797S (setting [3]), 16.7 nM. In addition, the IC50 at EGFR L858R/C797S (IC50 L858R/C797S, 100 μM ATP) is 518 nM; on EGFR L858R/C797S (setting [4]), 14.4 nM; at EGFR wildtype (WT) (IC50 WT, 100 μM ATP), above 10000 nM; on EGFR wildtype (WT) (setting [5]), 254 nM.

As for `Cn1ccc(-c2cnc(Nc3ccnc(-c4cnn(S(=O)(=O)C5CC5)c4)n3)cc2N[C@H]2CCC[C@H](CO)C2)n1` [Example 233, ((1S,3S)-3-((2-((2-(1-(Cyclopropylsulfonyl)-1H-pyrazol-4-yl)pyrimidin-4-yl)amino)-5-(1-methyl-1H-pyrazol-3-yl)pyridin-4-yl)amino)cyclohexyl)methanol], the IC50 against EGFR del19/T790M/C797S (setting [6]) was 0.5 nM; at EGFR del19/T790M/C797S (setting [7]) it was 0.4 nM; against EGFR L858R/T790M/C797S (setting [8]), 0.4 nM; at EGFR L858R/T790M/C797S (setting [9]), 0.2 nM; on EGFR del19/C797S (setting [10]), 1.3 nM; at EGFR del19/C797S (setting [11]), 0.5 nM. Also, the IC50 against EGFR L858R/C797S (setting [12]) came to 4.2 nM; on EGFR L858R/C797S (setting [13]) it was 0.9 nM; against EGFR wildtype (WT) (setting [14]) it was 3140 nM; at EGFR wildtype (WT) (setting [15]), 3.6 nM.

Turning to `C[C@]1(O)CC[C@@H](Nc2nc(Nc3ccnc(-c4cnn(CC(F)F)c4)c3)ncc2-c2ccn(C(F)F)n2)CC1` [Example 362, (1s,4s)-4-((2-((2-(1-(2,2-Difluoroethyl)-1H-pyrazol-4-yl)pyridin-4-yl)amino)-5-(1-(difluoromethyl)-1H-pyrazol-3-yl)pyrimidin-4-yl)amino)-1-methylcyclohexan-1-ol], the IC50 at EGFR del19/T790M/C797S (setting [1]) was determined as 0.2 nM; on EGFR L858R/T790M/C797S (setting [2]), 0.1 nM; on EGFR del19/C797S (setting [3]), 12.8 nM; at EGFR L858R/C797S (setting [4]) it was 5 nM; on EGFR wildtype (WT) (setting [5]), 159 nM.

Regarding `CC(C)(O)[C@H]1CC[C@@H](Nc2cc(Nc3ccnc(-c4cnn(S(=O)(=O)C5CC5)c4)n3)ncc2-c2ccn(CC(F)F)n2)CC1` [Example 243, 2-((1s,4s)-4-((2-((2-(1-(Cyclopropylsulfonyl)-1H-pyrazol-4-yl)pyrimidin-4-yl)amino)-5-(1-(2,2-difluoroethyl)-1H-pyrazol-3-yl)pyridin-4-yl)amino)cyclohexyl)propan-2-ol], the IC50 on EGFR del19/T790M/C797S (setting [6]) came out at 2.7 nM; against EGFR L858R/T790M/C797S (setting [8]) it was 1 nM; on EGFR L858R/T790M/C797S (setting [9]), 0.2 nM; on EGFR del19/C797S (setting [10]), 2 nM; on EGFR del19/C797S (setting [11]), 1.7 nM; against EGFR L858R/C797S (setting [12]), 10 nM. The IC50 at EGFR L858R/C797S (setting [13]) worked out at 4.5 nM; against EGFR wildtype (WT) (setting [14]) it was 4010 nM; at EGFR wildtype (WT) (setting [15]) it was 8.4 nM.

As to `O=S(=O)(C1CC1)n1cc(-c2nccc(Nc3cc(N[C@H]4CC[C@](O)(C(F)F)CC4)c(-c4ccn(C(F)F)n4)cn3)n2)cn1` [Example 200, (1s,4s)-4-((2-((2-(1-(Cyclopropylsulfonyl)-1H-pyrazol-4-yl)pyrimidin-4-yl)amino)-5-(1-(difluoromethyl)-1H-pyrazol-3-yl)pyridin-4-yl)amino)-1-(difluoromethyl)cyclohexan-1-ol], the IC50 amounted to 1 nM against EGFR del19/T790M/C797S (setting [6]); 0.6 nM on EGFR del19/T790M/C797S (setting [7]); 2.1 nM against EGFR L858R/T790M/C797S (setting [8]); 0.4 nM at EGFR L858R/T790M/C797S (setting [9]); 13.5 nM at EGFR del19/C797S (setting [11]); 293 nM against EGFR L858R/C797S (setting [12]). The IC50 was 15.4 nM at EGFR L858R/C797S (setting [13]), above 10000 nM on EGFR wildtype (WT) (setting [14]) and 2850 nM on EGFR wildtype (WT) (setting [15]).
